Laboratory results as given in PubChem BioAssay AID1919007 (Molecular Pharmacology Branch, DTP, NCI, 2023).
“And” between values parts separate entries of the source, which are not always exact repeats. Equal entries are not always repeated.

System: A498 complex spheroids with HUVEC/MSC, growth
Assay: Anticancer human tumor A498 cell line growth inhibition [AhR];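 also: seven day exposure starting three days after spheroid seeding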;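 as to viability, T/C: luminescence signal used as a surrogate for viable cells; luminescence viability scaled so 100% equals DMSO vehicle wells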
Conditions: for viability, T/C: stronger effect = lower value
Text: Multicellular complex tumor spheroid response to aryl hydrocarbon receptor antagonists in combination with a variety of drugs and investigational agents in selected tumor cell lines
The current study was undertaken to assess response to aryl hydrocarbon receptor antagonists in combination with standard-of-care drugs and investigational agents in solid tumor complex spheroid models. Complex spheroids include a stromal component modeled by human endothelial cells (HUVEC) and fibroblasts modeled by human mesenchymal stem cells (MSCs). The concentration ranges selected for each drug and investigational agent were based upon clinically achievable concentrations if the clinical Cmax of the agent was known.
Compounds. The drugs and investigational agents: BAY 2416964 (NSC825713), GNF351 (NSC835774), CH-223191 (NSC835775), CPI-455 (NSC825282), aza-TdCyd (NSC777586), decitabine (NSC127716), belinostat (NSC758774), entinostat (NSC756642), pevonedistat (NSC761192), tazemetostat (NSC777109), talazoparib (NSC765396), olaparib (NSC753686), selinexor (NSC780203), nedisertib (M3814, NSC802822), bortezomib (NSC756655), venetoclax (NSC766270), doxorubicin (NSC123127), elimusertib (BAY189344, NSC800525), ceralasertib (AZD6738, NSC777638), TAK-243 (NSC785004), alisertib (NSC759677), etoposide (NSC141540), topotecan (NSC609699), eribulin (NSC707389), gemcitabine (NSC613327), carboplatin (NSC241240), cisplatin (NSC119875), and SN-38 (NSC673596) were obtained from the National Cancer Institute (NCI) Developmental Therapeutics Program Chemical Repository (32). The FDA-approved anticancer drug set is available from the Developmental Therapeutics Program at https://dtp.cancer.gov/organization/dscb/obtaining/available plates.htm. […] The stock solutions were prepared in dimethyl sulfoxide (DMSO, Sigma-Aldrich, St. Louis, MO, cat. D2650), except for the platinum compounds which were prepared in saline (Quality Biological, Gaithersburg, MD, cat. 114-055-101), at 800-fold the tested concentration and stored at -70 degrees C prior to their use. All drugs and investigational agents were tested over a range starting from a high concentration at or near the clinical Cmax and decreasing in half-log increments. If the clinical Cmax for an agent had not been determined, the highest concentration tested was 10 microM (Table 1).
Cell Culture. All cells were maintained in an incubator at 37 degrees C and 5% CO2 with 95% humidity. The PDC lines were cultured according to standard operating procedures established by the NCI PDMR (https://pdmr.cancer.gov). Briefly, all PDCs were thawed and cultured in Matrigel-coated flasks prepared with a working solution of 1X Ham's F-12 nutrient mix, without supplementation (Invitrogen, Waltham, MA, cat. 11765054), 100 U/mL penicillin-streptomycin (Invitrogen, cat. 15140122), and 2.5% Matrigel (Corning Inc., Corning, NY, cat. 354248) for the first three passages. All PDCs were cultured in complete DMEM/F-12 media containing advanced DMEM/F-12 (Invitrogen, cat. 12634028), 4.9% defined fetal bovine serum, heat inactivated (HyClone Laboratories Inc., Logan, UT, cat. SH30070.03HI), 389 ng/mL hydrocortisone (Sigma-Aldrich, cat. H4001), 9.7 ng/mL human EGF recombinant protein (Invitrogen, cat. PHG0313), 23.4 microg/mL adenine (Sigma-Aldrich, cat. A2786), 97.3 U/mL penicillin-streptomycin (Invitrogen, cat. 15140122), 1.9 mM L-glutamine (Invitrogen, cat. 25030081), and 9.7 microM Y-27632 dihydrochloride (Tocris Bioscience, Bristol, United Kingdom, cat. 1254). The PDCs were cultured in complete DMEM/F12 media without 10 microM Y-27632 dihydrochloride for at least two passages prior to the screen. The established cell lines NCI-H1341 and […] were cultured in DMEM/F-12, HEPES (Invitrogen, cat. 11330032), 5% defined fetal bovine serum (HyClone Laboratories Inc., cat. SH30070.03), ITS premix universal culture supplement [insulin (5 microg/mL), transferrin (5 microg/mL), and selenious acid (5 ng/mL)] […]

[1] = curve of first compound, second compound 0.1 µM
[2] = curve of first compound, second compound 0.316 µM
[3] = curve of first compound, second compound 1 µM
[4] = curve of first compound, second compound 3.16 µM
[5] = curve of first compound, second compound 10 µM
[6] = second compound 0.1 µM, first compound 0.0316 µM
[7] = second compound 0.1 µM, first compound 0.1 µM
[8] = second compound 0.1 µM, first compound 0.316 µM
[9] = second compound 0.1 µM, first compound 1 µM
[10] = second compound 0.1 µM, first compound 3.16 µM
[11] = second compound 0.1 µM, first compound 10 µM
[12] = second compound 0.316 µM, first compound 0.0316 µM
[13] = second compound 0.316 µM, first compound 0.1 µM
[14] = second compound 0.316 µM, first compound 0.316 µM
[15] = second compound 0.316 µM, first compound 1 µM
[16] = second compound 0.316 µM, first compound 3.16 µM
[17] = second compound 0.316 µM, first compound 10 µM
[18] = second compound 1 µM, first compound 0.0316 µM
[19] = second compound 1 µM, first compound 0.1 µM
[20] = second compound 1 µM, first compound 0.316 µM
[21] = second compound 1 µM, first compound 1 µM
[22] = second compound 1 µM, first compound 3.16 µM
[23] = second compound 1 µM, first compound 10 µM
[24] = second compound 3.16 µM, first compound 0.0316 µM
[25] = second compound 3.16 µM, first compound 0.1 µM
[26] = second compound 3.16 µM, first compound 0.316 µM
[27] = second compound 3.16 µM, first compound 1 µM
[28] = second compound 3.16 µM, first compound 3.16 µM
[29] = second compound 3.16 µM, first compound 10 µM
[30] = second compound 10 µM, first compound 0.0316 µM
[31] = second compound 10 µM, first compound 0.1 µM
[32] = second compound 10 µM, first compound 0.316 µM
[33] = second compound 10 µM, first compound 1 µM
[34] = second compound 10 µM, first compound 3.16 µM
[35] = second compound 10 µM, first compound 10 µM

Compound: CC1COCCN1c1cc(C2(S(C)(=N)=O)CC2)nc(-c2ccnc3[nH]ccc23)n1 (centres undefined) + Cc1cncc(-c2nc(NCCc3c[nH]c4ccccc34)c3ncn(C(C)C)c3n2)c1
- IC50 [1]: 3.55 µM
- IC50 [2]: 2.69 µM
- IC50 [3]: 2.26 µM
- IC50 [4]: < 0.0316 µM
- IC50 [5]: < 0.0316 µM
- viability, T/C [6]: 97.8%
- viability, T/C [7]: 98.7%
- viability, T/C [8]: 90.4%
- viability, T/C [9]: 81.9%
- viability, T/C [10]: 52.5%
- viability, T/C [11]: 23.1%
- viability, T/C [12]: 94.9%
- viability, T/C [13]: 102%
- viability, T/C [14]: 96.3%
- viability, T/C [15]: 78.5%
- viability, T/C [16]: 45.7%
- viability, T/C [17]: 27.5%
- viability, T/C [18]: 86.8%
- viability, T/C [19]: 92%
- viability, T/C [20]: 87.5%
- viability, T/C [21]: 68.2%
- viability, T/C [22]: 42.9%
- viability, T/C [23]: 23.4%
- viability, T/C [24]: 37.1%
- viability, T/C [25]: 37.2%
- viability, T/C [26]: 39.5%
- viability, T/C [27]: 35.5%
- viability, T/C [28]: 33.9%
- viability, T/C [29]: 21.9%
- viability, T/C [30]: 4.97%
- viability, T/C [31]: 6.89%
- viability, T/C [32]: 5.25%
- viability, T/C [33]: 5.47%
- viability, T/C [34]: 5.09%
- viability, T/C [35]: 9.27%

Compound: Nc1ncn(C2CC(O)C(CO)S2)c(=O)n1 (centres undefined)
- viability, T/C (compound 0.000949 µM): 100% and 102% and 109%
- viability, T/C (compound 0.003 µM): 99.7% and 106% and 114%
- viability, T/C (compound 0.00949 µM): 94.9% and 101% and 108%
- viability, T/C (compound 0.03 µM): 97.8% and 105% and 96%
- viability, T/C (compound 0.0949 µM): 79.2% and 95.2% and 85%
- viability, T/C (compound 0.3 µM): 81% and 89.7% and 68.3%
- IC50 (curve of compound): > 0.3 µM

Compound: CC(C)CC(NC(=O)C(Cc1ccccc1)NC(=O)c1cnccn1)B(O)O (centres undefined) + Cc1ccccc1N=Nc1ccc(NC(=O)c2ccnn2C)c(C)c1
- IC50 [1]: 0.00525 µM
- IC50 [2]: 0.00575 µM
- IC50 [3]: 0.00519 µM
- IC50 [4]: 0.00516 µM
- IC50 [5]: 0.00511 µM
- viability, T/C (second compound 0.1 µM, first compound 0.000949 µM): 91.9%
- viability, T/C (second compound 0.1 µM, first compound 0.003 µM): 85.5%
- viability, T/C (second compound 0.1 µM, first compound 0.00949 µM): 12.4%
- viability, T/C (second compound 0.1 µM, first compound 0.03 µM): 2.56%
- viability, T/C (second compound 0.1 µM, first compound 0.0949 µM): 1.06%
- viability, T/C (second compound 0.1 µM, first compound 0.3 µM): 0.48%
- viability, T/C (second compound 0.316 µM, first compound 0.000949 µM): 99.1%
- viability, T/C (second compound 0.316 µM, first compound 0.003 µM): 102%
- viability, T/C (second compound 0.316 µM, first compound 0.00949 µM): 11%
- viability, T/C (second compound 0.316 µM, first compound 0.03 µM): 3.7%
- viability, T/C (second compound 0.316 µM, first compound 0.0949 µM): 3.08%
- viability, T/C (second compound 0.316 µM, first compound 0.3 µM): 1.05%
- viability, T/C (second compound 1 µM, first compound 0.000949 µM): 81.7%
- viability, T/C (second compound 1 µM, first compound 0.003 µM): 86.3%
- viability, T/C (second compound 1 µM, first compound 0.00949 µM): 12.4%
- viability, T/C (second compound 1 µM, first compound 0.03 µM): 3.99%
- viability, T/C (second compound 1 µM, first compound 0.0949 µM): 2.9%
- viability, T/C (second compound 1 µM, first compound 0.3 µM): 0.61%
- viability, T/C (second compound 3.16 µM, first compound 0.000949 µM): 80.9%
- viability, T/C (second compound 3.16 µM, first compound 0.003 µM): 86.7%
- viability, T/C (second compound 3.16 µM, first compound 0.00949 µM): 11.8%
- viability, T/C (second compound 3.16 µM, first compound 0.03 µM): 4.56%
- viability, T/C (second compound 3.16 µM, first compound 0.0949 µM): 3.32%
- viability, T/C (second compound 3.16 µM, first compound 0.3 µM): 0.84%
- viability, T/C (second compound 10 µM, first compound 0.000949 µM): 84.8%
- viability, T/C (second compound 10 µM, first compound 0.003 µM): 87.2%
- viability, T/C (second compound 10 µM, first compound 0.00949 µM): 8.3%
- viability, T/C (second compound 10 µM, first compound 0.03 µM): 4.14%
- viability, T/C (second compound 10 µM, first compound 0.0949 µM): 1.64%
- viability, T/C (second compound 10 µM, first compound 0.3 µM): 1.69%

Compound: COc1cccc2c1C(=O)c1c(O)c3c(c(O)c1C2=O)CC(O)(C(=O)CO)CC3OC1CC(N)C(O)C(C)O1 (centres undefined)
- viability, T/C (compound 0.0316 µM): 67.3% and 67.5% and 58.1%
- viability, T/C (compound 0.1 µM): 70.1% and 60.3% and 55.9%
- viability, T/C (compound 0.316 µM): 56.7% and 50.1% and 38.2%
- viability, T/C (compound 1 µM): 23.9% and 24.6% and 18.1%
- viability, T/C (compound 3.16 µM): 1.61% and 1.62% and 1.55%
- viability, T/C (compound 10 µM): 0.78% and 0.83% and 0.85%
- IC50 (curve of compound): 0.409 µM and 0.319 µM and 0.14 µM

Compound: NS(=O)(=O)OCC1CC(n2ccc3c(NC4CCc5ccccc54)ncnc32)CC1O (centres undefined) + Cc1ccccc1N=Nc1ccc(NC(=O)c2ccnn2C)c(C)c1
- IC50 [1]: 0.334 µM
- IC50 [2]: 0.359 µM
- IC50 [3]: 0.316 µM
- IC50 [4]: 0.341 µM
- IC50 [5]: 0.348 µM
- viability, T/C [6]: 87.8%
- viability, T/C [7]: 83.8%
- viability, T/C [8]: 49.3%
- viability, T/C [9]: 31.3%
- viability, T/C [10]: 26%
- viability, T/C [11]: 20.1%
- viability, T/C [12]: 88.5%
- viability, T/C [13]: 83.8%
- viability, T/C [14]: 51.2%
- viability, T/C [15]: 31%
- viability, T/C [16]: 25.7%
- viability, T/C [17]: 21.3%
- viability, T/C [18]: 86.2%
- viability, T/C [19]: 78%
- viability, T/C [20]: 49.2%
- viability, T/C [21]: 30.1%
- viability, T/C [22]: 24.2%
- viability, T/C [23]: 21.9%
- viability, T/C [24]: 83.5%
- viability, T/C [25]: 77.3%
- viability, T/C [26]: 49.6%
- viability, T/C [27]: 33%
- viability, T/C [28]: 25.9%
- viability, T/C [29]: 22.7%
- viability, T/C [30]: 78.2%
- viability, T/C [31]: 71.7%
- viability, T/C [32]: 50.5%
- viability, T/C [33]: 33.9%
- viability, T/C [34]: 25%
- viability, T/C [35]: 23.2%
